Counter-ions that a name gives are not always drawn. Like-named read-outs stand apart in the source and are kept apart here.
Key:
[1] = tested on: Corynebacterium pyogenes C-21; test: In vitro antibacterial activity (MIC); type: cell-based; conditions: Rhodococcus (subgen. Prescottella) equi, C21, read-out: minimum inhibitory concentration (MIC)
Excerpt: (§1) In vitro antibacterial activity against 20 strains of bacteria
(§2) The numerals in the table show minimum inhibitory concentrations (MIC)

[2] = tested on: Enterobacter cloacae P-2540; test: In vitro antibacterial activity (MIC); type: cell-based; conditions: Enterobacter cloacae, P2540, read-out: minimum inhibitory concentration (MIC)
Excerpt: as §1, §2

[3] = tested on: Escherichia coli NIHJ JC-2; test: In vitro antibacterial activity (MIC); type: cell-based; conditions: Escherichia coli, NIHJJC2, read-out: minimum inhibitory concentration (MIC)
Excerpt: as §1, §2

Escherichia coli P-140a = test: In vitro antibacterial activity (MIC); type: cell-based
Excerpt: as §1, §2

Escherichia coli P-5101 = test: In vitro antibacterial activity (MIC); type: cell-based; conditions: P5101; Escherichia coli P-5101; read-out: minimum inhibitory concentration (MIC)
Excerpt: as §1, §2

[4] = tested on: Klebsiella pneumoniae No. 13; test: In vitro antibacterial activity (MIC); type: cell-based; conditions: Klebsiella pneumoniae, NO.13, read-out: minimum inhibitory concentration (MIC)
Excerpt: as §1, §2

Proteus mirabilis P-2381 = test: In vitro antibacterial activity (MIC); type: cell-based; conditions: Proteus mirabilis, P2381, read-out: minimum inhibitory concentration (MIC)
Excerpt: as §1, §2

Proteus morganii Kono = test: In vitro antibacterial activity (MIC); type: cell-based; conditions: Morganella morganii, read-out: minimum inhibitory concentration (MIC)
Excerpt: as §1, §2

Proteus rettgeri P-2503 = test: In vitro antibacterial activity (MIC); type: cell-based; conditions: Providencia rettgeri, P2503; Proteus rettgeri P-2503; read-out: minimum inhibitory concentration (MIC)
Excerpt: as §1, §2

[5] = tested on: Pseudomonas aeruginosa No.12; test: In vitro antibacterial activity (MIC); type: cell-based; conditions: Pseudomonas aeruginosa, NO.12, read-out: minimum inhibitory concentration (MIC)
Excerpt: as §1, §2

[6] = tested on: Pseudomonas aeruginosa Tsuchijima; test: In vitro antibacterial activity (MIC); type: cell-based; conditions: Pseudomonas aeruginosa Tsuchijima; read-out: minimum inhibitory concentration (MIC)
Excerpt: as §1, §2

[7] = tested on: Salmonella enteritidis No. 1891; test: In vitro antibacterial activity (MIC); type: cell-based; conditions: Salmonella enterica; Salmonella enteritidis No. 1891; read-out: minimum inhibitory concentration (MIC)
Excerpt: as §1, §2

[8] = tested on: Salmonella typhimurium S-9; test: In vitro antibacterial activity (MIC); type: cell-based; conditions: Salmonella enterica; Salmonella typhimurium S-9; read-out: minimum inhibitory concentration (MIC)
Excerpt: as §1, §2

[9] = tested on: Serratia mercescens IFO 3736; test: In vitro antibacterial activity (MIC); type: cell-based; conditions: IFO3736; Serratia mercescens IFO 3736; read-out: minimum inhibitory concentration (MIC)
Excerpt: as §1, §2

Shigella flexneri 2a = test: In vitro antibacterial activity (MIC); type: cell-based; conditions: read-out: minimum inhibitory concentration (MIC)
Excerpt: as §1, §2

[10] = tested on: Shigella flexneri 4a P-330; test: In vitro antibacterial activity (MIC); type: cell-based; conditions: 4AP330, read-out: minimum inhibitory concentration (MIC)
Excerpt: as §1, §2

[11] = tested on: Staphylococcus aureus 209P JC-1; test: In vitro antibacterial activity (MIC); type: cell-based; conditions: Staphylococcus aureus 209P JC-1; read-out: minimum inhibitory concentration (MIC)
Excerpt: as §1, §2

[12] = tested on: Staphylococcus aureus No. 50774; test: In vitro antibacterial activity (MIC); type: cell-based; conditions: Staphylococcus aureus No. 50774; read-out: minimum inhibitory concentration (MIC)
Excerpt: as §1, §2

[13] = tested on: Streptococcus faecalis P-2473; test: In vitro antibacterial activity (MIC); type: cell-based; conditions: Enterococcus faecalis, P2473, read-out: minimum inhibitory concentration (MIC)
Excerpt: as §1, §2

[14] = tested on: Streptococcus pyogenes 65A; test: In vitro antibacterial activity (MIC); type: cell-based; conditions: Streptococcus pyogenes 65A; read-out: minimum inhibitory concentration (MIC)
Excerpt: as §1, §2

[15] = tested on: Pseudomonas aeruginosa No. 12; test: In vivo efficacy against systemic infection; set-up: species or system male mice (ddY); conditions: for ED50: NO.12, in Mus musculus
How it was run: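 Male ddY mice (about 20 g) infected intraperitoneally with a Pseudomonas aeruginosa No. 12 suspension. Compounds in deionized water were given twice, about 5 minutes and 6 hours after infection. Effective dose calculated by the Behrens-Kaerber method.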

[16] = Urinary excretion in mice; type: in vivo, male mice (ddY); conditions: for a: amount in urine: 4 mice, total body weight 101.8 g
Method: The contents of the vials (No. A) obtained in Example 17 were dissolved in deionized water to form solutions of penicillin compound 1 in a concentration of 25 mg/ml. The solutions were administered in a dose of 25 mg/kg (im) to four male mice (ddY) having an average body weight of 25 g. After given periods of time, the urine was collected from the four mice, and the concentration of the penicillin compound 1 in the urine was determined.
Urine was collected by using a metabolism cage for 3, 6, and 24 hours after administration. The pooled urine was diluted with a 0.067M phosphate buffer (pH 7.0) before assay to 500 times for the 0-3 hour urine, 100 times for the 3-6 hour urine and 10 times for the 6-24 hour urine.
The levels of compound 1 were determined by the thin-layer cup-plate method using Escherichia coli Kp as an indicator microorganism and a standard calibration line was prepared in a 0.067M phosphate buffer (pH 7.0).

in vivo = conditions: mouse

CC1(C)S[C@@H]2[C@H](NC(=O)[C@H](NC(=O)c3c[nH]c4nc(N5CCN(C=O)CC5)ncc4c3=O)c3ccc(O)cc3)C(=O)N2[C@H]1C(=O)O [Compound 1, D-α-[5,8-Dihydro-2-(4-formyl-1-piperazinyl)-5-oxopyrido[2,3-d]pyrimidine-6-carboxamido]-p-hydroxybenzyl-penicillin sodium salt]
MIC [1]: 3.13 µg/mL | MIC [2]: 6.25 µg/mL | MIC [3]: 3.13 µg/mL | minimum inhibitory concentration (MIC) (Escherichia coli P-140a): 12.5 µg/mL | MIC (Escherichia coli P-5101): 1.56 µg/mL | MIC [4]: 12.5 µg/mL | MIC (Proteus mirabilis P-2381): 3.13 µg/mL | MIC (Proteus morganii Kono): 6.25 µg/mL | MIC (Proteus rettgeri P-2503): 25 µg/mL | MIC [5]: 3.13 µg/mL | MIC [6]: 0.78 µg/mL | MIC [7]: 0.78 µg/mL | MIC [8]: 0.78 µg/mL | MIC [9]: 6.25 µg/mL | MIC (Shigella flexneri 2a): 3.13 µg/mL | MIC [10]: 3.13 µg/mL | MIC [11]: 0.78 µg/mL | MIC [12]: 1.56 µg/mL | MIC [13]: 3.13 µg/mL | MIC [14]: 0.006 µg/mL | ED50 ([15]; iv, twice, about 5 minutes and 6 hours after infection, read-out: ED50 (median effective dose)): 4.1 mg/kg | ED50 ([15]; parenteral administration, compounds 1 and 2 together, read-out: ED50): 2 to 6 mg/kg | ED50 ([15]; sc, twice, about 5 minutes and 6 hours after infection, read-out: ED50 (median effective dose)): 2.1 mg/kg | antibacterial activity compared with compounds J and H (in words) ([15]; parenteral administration): far superior antibacterial activity | antibacterial activity relative to compounds B and C (times as high) ([15]; parenteral administration): 3 to 25 times | antibacterial activity relative to compounds D and E (times as high) ([15]; parenteral administration): 6 to 20 times | a: amount in urine ([16]; 25 mg/kg, im, single dose, 0-3 hour): 0.718 mg | a: amount in urine ([16]; 25 mg/kg, im, single dose, 3-6 hour): 0.0480 mg | a: amount in urine ([16]; 25 mg/kg, im, single dose, 6-24 hour): 0.0483 mg | urinary level (in words) ([16]; after parenteral administration): higher than its MIC (μg/ml) values against various bacteria shown in Table I | dose excreted at 3 h ([16]; mouse, urine, im, 25 mg/kg, im, single dose, 0-3 hour, read-out: cr: cumulative urinary recovery): 28.2% | dose excreted at 3 h ([16]; mouse, urine, im, 25 mg/kg, im, single dose, 0-3 hour, read-out: r: urinary recovery): 28.2% | dose excreted at 6 h ([16]; mouse, urine, im, 25 mg/kg, im, single dose, 3-6 hour, read-out: r: urinary recovery): 1.89% | dose excreted at 24 h ([16]; mouse, urine, im, 25 mg/kg, im, single dose, 6-24 hour, read-out: r: urinary recovery): 1.9% | dose excreted at 6 h ([16]; mouse, urine, im, 25 mg/kg, im, single dose, column 3-6 hour, read-out: cr: cumulative urinary recovery): 30% | dose excreted at 24 h ([16]; mouse, urine, im, 25 mg/kg, im, single dose, column 6-24 hour, read-out: cr: cumulative urinary recovery): 31.9% | concentration at 3 h ([16]; mouse, urine, 25 mg/kg, im, single dose, 0-3 hour, read-out: c: urinary concentration): 187000 ng/mL | concentration at 6 h ([16]; mouse, urine, 25 mg/kg, im, single dose, 3-6 hour, read-out: c: urinary concentration): 21500 ng/mL | concentration at 24 h ([16]; mouse, urine, 25 mg/kg, im, single dose, 6-24 hour, read-out: c: urinary concentration): 7250 ng/mL | chemotherapeutic index relative to compounds B, D, E, F, G and J (times as high) (mice; Pseudomonas aeruginosa): 3 to 100 times | LD50 relative to compounds A to G (times as high) (mice; mice): 2 to 10 times | LD50 at 168 h (in vivo; iv): 4520 mg/kg | selectivity ratio (in vivo; iv): 1100 | LD50 at 168 h (in vivo; sc): > 6000 mg/kg | selectivity ratio (in vivo; sc): > 3000

Source: patent US4103011A, “Novel penicillin compounds and process for preparation thereof” (priority 1976, dated 1978)
